Results reported in patent publication US10632116B2, “Combinations of serotonin receptor agonists for treatment of movement disorders” (Contera Pharma A/S, priority 2010, dated 2020).

Tests used:
[1] = system: 6-OHDA unilateral lesion model rats; experiment: Forepaw adjusting steps (FAS), 6-OHDA induced akinesia; assay type: in vivo, rat; details: first study; acute L-DOPA 3 mg/kg with 15 mg/kg benserazide s.c.
Procedure: Animals: 60 Sprague-Dawley male rats (290 g-340 g, bought from SLAC Laboratory Animal Co. Ltd at an age of 8-10 weeks). Rats were housed in groups of n=2/cage. […] Animal housing and testing rooms were maintained under controlled environmental conditions and were within close proximity of each other. Animal housing rooms were on a 12-hour light-dark cycle with lights on at 6:00 AM and maintained at 70° F./21° C. (range: 68-72° F./20-22° C.) with a humidity range of 20-40%. Testing rooms were maintained at 68-72° F. with a humidity range of 20-40%.
Dopamine (DA)-denervating lesions were performed by unilateral injection of 6-OHDA in the median forebrain bundle containing the ascending nigrostraital pathway. Rats were anesthetized with pentobarbital sodium 40 mg/kg (i.p.) and positioned in a stereotactic frame. 6-OHDA was injected at the following coordinates (in mm) relative to bregma and dural surface: Tooth bar: −3.3 mm, AP: −1.8 mm, ML: −2.0 mm, DV: −8.6 mm (18 μg/6 μl 6-OHDA). […]
After recovery from surgery, rats with nearly complete (>90%) lesions were selected by means of an apomorphin-induced rotation test. […] Quantification of the rotational response was accomplished in rats by counting the turns in 30 minutes. […]
Each baseline adjusting step test consisted of two subtests of the day and the mean of the two subtests were calculated as baseline. […]

Parkinson's disease = details: doses 10-60 mg/day; cited from earlier work
[2] = system: unilaterally 6-OHDA-lesioned rats; experiment: L-DOPA induced AIMs and drugs screening test (6-OHDA rat model); assay type: in vivo
Sprague-Dawley (SD) rats = experiment: Rotarod test (Example V, sedation/motor performance); assay type: in vivo, rat; details: FIG. 2; pentobarbital 15 mg/kg i.p., 30 min before test; positive control
Source text: (§1) The present study describes the evaluation of zolmitriptan and buspirone in the 6-OHDA rat model in a study using the rotarod test. Using this study, a treatment with combination of compounds according to the present invention can be evaluated for their sedative effects, and/or their effects on the motor performance compared to sedated rats and to rats which only had saline injections.
In brief, the animals (30 SD male rats (180-220 g, bred in house, originally from SLAC Laboratory Animal Co. Ltd) at 9-week of age) were trained twice a day for a 3-day period. […] Each training trial was ended if the animal fell off or grips the device and spun around for two consecutive revolutions. The time that rat stayed on the Rotarod was recorded. The staying duration recorded at last training trail was used as baseline. Rats were grouped according a randomly distribution of baseline.
For the test session on the fourth day, the rats were evaluated on the Rotarod with the same setting as above at 30 min after dosing. The rats were dosed with drugs as described below. Dosing and Rotarod measurement were conducted by two scientists separately. Pentobarbital (15 mg/kg. i.p.) was used a as a positive control.
(§2) Vehicle: Saline, i.p., 30 min before test, n=10
(§3) Positive control: Pentobarbital 15 mg/kg, i.p. 30 min before test, n=10 […]
The data were analyzed using One-Way ANOVA and the Tukey post-hoc test.

naïve rats = experiment: Open field test (Example VI, locomotor activity); assay type: in vivo, rat; details: FIG. 3; pentobarbital 15 mg/kg i.p., 30 min before test; positive control
Source text: as §1, with “model.” for “model in a study using the rotarod test.”
The open field test was used to determine the effects of drug on locomotor activity. Rats were put in open-field chambers (dimensions 40 cm×40 cm) 30 minutes after dosing. After a 15 minutes habituation, locomotion were recorded and analysed by Enthovision Video Tracking Software (Noldus Information Technology, Netherlands) for 60 minutes. All locomotor activities were done during dark phase and to eliminate olfactory cues, the arena was thoroughly cleaned with 70% v/v ethanol between each test.
as §2, §3
Statistical analysis: The total locomotor activity is expressed as total moved distance (cm) and average velocity (cm/s) during 60 minutes. The data were analysed using One-Way ANOVA and the Tukey post-hoc test. The locomotor activity in six time point is expressed as moved distance (cm) and average velocity (cm/s) every 10 minutes. The data were analysed using One-Way ANOVA and the Tukey post-hoc test in each time point.

Huntington's disease = details: patient suffering from Huntington's disease; cited from earlier work
[3] = system: L-DOPA induced dyskinesia; details: cited from earlier work

Which “6-OHDA induced akinesia (forelimb use)” value [1] does the source give for N[C@@H](Cc1ccc(O)c(O)c1)C(=O)O [L-DOPA, 3,4-dihydroxyphenylalanine] here?
The value was “alleviated 6-OHDA induced akinesia”.

With O=C1CC2(CCCC2)CC(=O)N1CCCCN1CCN(c2ncccn2)CC1 [buspirone, 8-[4-(4-pyrimidin-2-ylpiperazin-1-yl)butyl]-8-azaspiro[4.5]decane-7,9-dione] as the compound, how does the “effects on Parkinson's disease or dyskinesia” value (Parkinson's disease) read?
The value was “did not have any effects”.

And the “L-DOPA induced AIM (Total AIMs)” value ([2]; Example IV, FIG. 1, buspirone alone 1 mg/kg/day i.p.)?
The value was “only partly reduced AIM”.

And the “L-DOPA induced AIM (Total AIMs)” value ([2]; Example VII, FIG. 4, buspirone alone 0.5 mg/kg i.p.)?
Its value is “only partly reduced AIM”.

With CCCC(C)C1(CC)C(=O)NC(=O)NC1=O (stereo not shown) [pentobarbital] as the compound, how does the “rotarod performance (time spent on the accelerating rod)” value (Sprague-Dawley (SD) rats) read?
The value was “significantly reduced time spend on the rotarod”.

What about the “open field test motor performance” value (naïve rats) of the same compound?
The value was “significantly reduced motor performance”.

With O=C1[C@H]2CCCC[C@H]2C(=O)N1CCCCN1CCN(c2nsc3ccccc23)CC1 [perospirone, (3 aR,7aS)-2-{4-[4-(1,2-benzisothiazol-3-yl)piperazin-1-yl]butyl}hexahydro-1H-isoindole-1,3(2H)-dione] as the compound, how does the involuntary movement (Huntington's disease) read?
Its involuntary movement is “could reduce involuntary movement”.

With Fc1ccc(-c2cncc(CNC[C@H]3CCc4ccccc4O3)c2)cc1 [sarizotan, 1-[(2R)-3,4-dihydro-2H-chromen-2-yl]-N-([5-(4-fluorophenyl)pyridin-3-yl]-methyl)methanamine] as the compound, how does the LID ([3]; phase 2A study and open labeled study) read?
The LID was “reduced LID”.

And the “effects compared to placebo” value ([3]; several large phase 2b studies)?
The value was “no significant effects”.

With CN(C)CCc1c[nH]c2ccc(C[C@H]3COC(=O)N3)cc12 [zolmitriptan, (S)-4-([3-[2-(dimethylamino)ethyl]-1H-indol-5-yl]methyl)-1,3-oxazolidin-2-one] as the compound, how does the “L-DOPA induced AIM (Total AIMs)” value ([2]; Example IV, FIG. 1, zolmitriptan alone 10 mg/kg/day) read?
Its value is “did not reduce AIM”.
